Measurements as given in patent US5977102A, “Pyrimido [5, 4-d] pyrimidines, pharmaceuticals containing these compounds, their use and processes for their preparation” (Dr. Karl Thomae GmbH, priority 1996, dated 1999).

Columns and labels:
Type in all cases: cell-based
[1] = biological target: T1, human EGF-R (Homo sapiens, UniProt P00533); assay: Inhibition of EGF-dependent proliferation of F/L-HERc cells; settings: EGF (20 ng/ml), 48 hours
T1 construct: expressed in transfected cells; host or cells: F/L-HERc: murine IL-3-dependent FDC-P1 cells infected with recombinant retrovirus (vector LXSN, packaging line GP+E86) carrying human EGF-R cDNA
T1 sequence (P00533 25-1210): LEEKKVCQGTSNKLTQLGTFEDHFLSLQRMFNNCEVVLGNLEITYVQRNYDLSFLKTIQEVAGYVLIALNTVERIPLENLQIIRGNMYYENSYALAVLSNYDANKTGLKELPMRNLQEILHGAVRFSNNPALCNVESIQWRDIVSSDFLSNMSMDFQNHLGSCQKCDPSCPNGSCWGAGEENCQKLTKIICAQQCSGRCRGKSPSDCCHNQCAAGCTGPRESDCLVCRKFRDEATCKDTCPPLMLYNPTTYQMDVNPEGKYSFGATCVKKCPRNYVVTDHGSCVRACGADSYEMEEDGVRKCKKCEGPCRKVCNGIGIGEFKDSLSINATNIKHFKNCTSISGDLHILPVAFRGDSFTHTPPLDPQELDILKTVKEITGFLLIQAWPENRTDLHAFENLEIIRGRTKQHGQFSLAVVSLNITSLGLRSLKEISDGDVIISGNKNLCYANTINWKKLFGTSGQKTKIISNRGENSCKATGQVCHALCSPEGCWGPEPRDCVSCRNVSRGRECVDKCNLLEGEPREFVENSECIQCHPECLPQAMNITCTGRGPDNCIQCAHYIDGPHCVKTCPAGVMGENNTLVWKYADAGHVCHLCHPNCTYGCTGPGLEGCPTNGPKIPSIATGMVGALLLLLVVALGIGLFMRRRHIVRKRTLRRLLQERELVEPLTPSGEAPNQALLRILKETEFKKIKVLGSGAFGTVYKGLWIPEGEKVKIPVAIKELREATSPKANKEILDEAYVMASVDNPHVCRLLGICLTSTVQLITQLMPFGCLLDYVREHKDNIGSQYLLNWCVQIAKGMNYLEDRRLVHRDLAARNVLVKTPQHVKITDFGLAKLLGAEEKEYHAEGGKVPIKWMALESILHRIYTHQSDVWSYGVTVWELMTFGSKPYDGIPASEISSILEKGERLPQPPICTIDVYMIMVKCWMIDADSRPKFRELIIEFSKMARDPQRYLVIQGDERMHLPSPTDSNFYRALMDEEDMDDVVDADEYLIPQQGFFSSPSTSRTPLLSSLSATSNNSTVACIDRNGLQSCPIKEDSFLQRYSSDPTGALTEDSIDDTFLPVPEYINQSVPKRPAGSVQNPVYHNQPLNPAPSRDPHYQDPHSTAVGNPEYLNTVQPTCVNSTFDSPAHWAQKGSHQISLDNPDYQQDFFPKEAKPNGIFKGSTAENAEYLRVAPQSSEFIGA
Excerpt: (§1) In this case, an interleukin-3 (IL-3)-dependent cell line of murine origin was used and was genetically modified in such a way that it expresses functional human EGF-R. Proliferation of these cells, which are called F/L-HERc, can therefore be stimulated either by murine IL-3 or by EGF (see von Ruden, T. et al. in EMBO J. 7, 2749-2756 (1988) and Pierce, J. H. et al. in Science 239, 628-631 (1988)).
(§2) The starting material for the F/L-HERc cells was the cell line FDC-P1,whose preparation has been described by Dexter, T. M. et al. in J. Exp. Med. 152, 1036-1047 (1980). However, it is also possible as an alternative to use other growth factor-dependent cells (see, for example, Pierce, J. H. et al. in Science 239, 628-631 (1988), Shibuya, H. et al. in Cell 70, 57-67 (1992) and Alexander, W. S. et al. in EMBO J. 10, 3683-3691 (1991)). Recombinant retroviruses as described in von Ruden, T. et al., EMBO J. 7, 2749-2756 (1988) were used for expression of the human EGF-R cDNA (see Ullrich, A. et al. in Nature 309, 418-425 (1984)) with the difference that the retroviral vector LXSN (see Miller, A. D. et al. in BioTechniques 7, 980-990 (1989)) was employed for expression of the EGF-R cDNA, and the line GP+E86 (see Markowitz, D. et al. in J. Virol. 62, 1120-1124 (1988)) was used as packaging cell.
(§3) The test was carried out as follows:
(§4) F/L-HERc cells were cultivated in RPMI/1640 medium (BioWhittaker), supplemented with 10% fetal calf serum (FCS, Boehringer Mannheim), 2 mM glutamine (BioWhittaker), standard antibiotics and 20 ng/ml human EGF (Promega), at 37° C. and 5% CO2. To investigate the inhibitory activity of the compounds according to the invention, 1.5×10^4 cells were cultivated in the above medium (200 μl) per well in triplicates in 96-well plates, stimulating proliferation of the cells either with EGF (20 ng/ml) or with murine IL-3. The source used for IL-3 was culture supernatants from the cell line X63/0 mIL-3 (see Karasuyama, H. et al. in Eur. J. Immunol. 18, 97-104 (1988)). The compounds according to the invention were dissolved in 100% dimethyl sulphoxide (DMSO) and added in various dilutions to the cultures, with the maximum DMSO concentration being 1%. The cultures were incubated at 37° C. for 48 hours.
(§5) To determine the inhibitory activity of the compounds according to the invention, the relative cell count was measured in O.D. units using the Cell Titre 96™ AQueous Non-Radioactive Cell Proliferation Assay (Promega). The relative cell count was calculated as a per cent of the control (F/L-HERc cells without inhibitor), and the concentration of active substance which inhibits the proliferation of the cells by 50% (IC50) was inferred.

[2] = tested on: F/L-HERc cells; assay: Inhibition of IL-3-dependent proliferation of F/L-HERc cells; settings: Mus musculus, murine IL-3, 48 hours
Excerpt: as §1, §2, §3, §4, §5

[3] = tested on: human tumour cell line KB; assay: Inhibition of EGF/TGF-alpha-stimulated KB cell proliferation ([3H]-thymidine incorporation); settings: KB cells, TGF-alpha [10 ng/ml] or EGF [20 ng/ml], 60 hours, then [3H]-thymidine 16-18 h
Method: To do this, the cells were washed twice and 1500 cells per well were plated out in a 96-well plate in 200 μl of IMDM (BioWhittaker) without serum in the presence of 50 μM mercaptoethanol, standard antibiotics, TGF-alpha [10 ng/ml] or EGF [20 ng/ml] and of various concentrations of the substances according to the invention (triplicates, maximum DMSO concentration 1%, see proliferation test with F/L-HERc cells). After 60 hours, [^3 H]-thymidine (0.1 μCi in 10 μl) was added for about 16-18 h.

| Compound | IC50 [1] [nM] | IC50 [3] [nM] | IC50 [2] [nM] |
| --- | --- | --- | --- |
| c1cc(Nc2ncnc3cnc(N4CCOCC4)nc23)c2cccnc2c1 [1(1), 4-(5-quinolylamino)-6-morpholinopyrimido[5,4-d]pyrimidine] | 2000 | – | 10000 |
| c1cnc2ccc(Nc3ncnc4cnc(N5CCOCC5)nc34)cc2c1 [1(2), 4-(6-quinolylamino)-6-morpholinopyrimido[5,4-d]pyrimidine] | 1000 | – | – |
| c1cnc2c(Nc3ncnc4cnc(N5CCOCC5)nc34)cccc2c1 [1(3), 4-(8-quinolylamino)-6-morpholinopyrimido[5,4-d]pyrimidine] | 800 | – | – |
| c1nc(Nc2ccc3[nH]ncc3c2)c2nc(N3CCOCC3)ncc2n1 [1(4), 4-(5-indazolylamino)-6-morpholinopyrimido[5,4-d]pyrimidine] | 125 | – | – |
| c1cc(Nc2ncnc3cnc(N4CCOCC4)nc23)c2nsnc2c1 [1(5), 4-[4-(2,1,3-benzothiadiazolyl)amino]-6-morpholinopyrimido[5,4-d]pyrimidine] | 1000 | – | – |
| c1cncc(Nc2ncnc3cnc(N4CCOCC4)nc23)c1 [1(9), 4-(3-pyridylamino)-6-morpholinopyrimido[5,4-d]pyrimidine] | 6000 | – | – |
| c1cc(Nc2ncnc3cnc(N4CCOCC4)nc23)ccn1 [1(13), 4-(4-pyridylamino)-6-morpholinopyrimido[5,4-d]pyrimidine] | 10000 | – | 9000 |
| c1cc2cc(Nc3ncnc4cnc(N5CCOCC5)nc34)ccc2cn1 [1(14), 4-(6-isoquinolylamino)-6-morpholinopyrimido[5,4-d]-pyrimidine] | 2300 | – | 2200 |
| Clc1cccc(CNc2ncnc3cnc(N4CCOCC4)nc23)c1 [1(15), 4-(3-chlorobenzylamino)-6-morpholinopyrimido[5,4-d]-pyrimidine] | 1 | – | > 10000 |
| c1ccc2c(c1)CCC(Nc1ncnc3cnc(NC4CC4)nc13)C2 (stereo not shown) [1(16), 4-(1,2,3,4-tetrahydro-2-naphthylamino)-6-cyclopropylaminopyrimido[5,4-d]pyrimidine] | 200 | – | – |
| O[C@H]1CC[C@H](Nc2ncc3ncnc(Nc4ccc5[nH]ccc5c4)c3n2)CC1 [2(1), 4-(5-indolylamino)-6-[trans-(4-hydroxycyclohexyl)amino]pyrimido[5,4-d]pyrimidine] | 1 | – | > 10000 |
| Cc1cccc(Nc2ncnc3cnc(-n4ccnc4)nc23)c1 [2(2), 4-[(3-methylphenyl)amino]-6-(1-imidazolyl)pyrimido-[5,4-d]pyrimidine] | 400 | – | – |
| CN1CCC2(CC1)CN(c1ncc3ncnc(Nc4ccc(F)c(Cl)c4)c3n1)C2 [2(3), 4-[(3-chloro-4-fluorophenyl)amino]-6-(7-methyl-2,7-diazaspiro[3.5]-2-nonyl)pyrimido[5,4-d]pyrimidine] | 138 | – | > 10000 |
| O=C(CN1CCN(c2ncc3ncnc(Nc4ccc(F)c(Cl)c4)c3n2)CC1)N1CCCC1 [2(4), 4-[(3-chloro-4-fluorophenyl)amino]-6-[4-(1-pyrrolidinylcarbonylmethyl)-1-piperazinyl]pyrimido[5,4-d]pyrimidine] | 200 | – | > 10000 |
| O=C(CN1CCN(c2ncc3ncnc(Nc4ccc(F)c(Cl)c4)c3n2)CC1)N1CCOCC1 [2(5), 4-[(3-chloro-4-fluorophenyl)amino]-6-[4-(morpholinocarbonylmethyl)-1-piperazinyl]pyrimido[5,4-d]pyrimidine] | 40 | – | > 10000 |
| Fc1ccc(Nc2ncnc3cnc(NCc4ccccn4)nc23)cc1Cl [2(7), 4-[(3-chloro-4-fluorophenyl)amino]-6-(2-picolylamino)pyrimido[5,4-d]pyrimidine] | 175 | – | > 1000 |
| CN1[C@@H]2CC[C@H]1C[C@@H](Nc1ncc3ncnc(Nc4ccc(F)c(Cl)c4)c3n1)C2 [2(18), 4-[(3-chloro-4-fluorophenyl)amino]-6-(endo-tropinylamino)pyrimido[5,4-d]pyrimidine] | 138 | – | > 10000 |
| CN1[C@@H]2CC[C@H]1C[C@H](Nc1ncc3ncnc(Nc4ccc(F)c(Cl)c4)c3n1)C2 [2(19), 4-[(3-chloro-4-fluorophenyl)amino]-6-(exo-tropinylamino)pyrimido[5,4-d]pyrimidine] | 28 | – | > 10000 |

Further lines, with some results ahead:

| IC50 [1] [nM] | IC50 [3] [nM] | Compound | IC50 [2] [nM] |
| --- | --- | --- | --- |
| 15 | – | O=C(N1CCC(Nc2ncc3ncnc(Nc4ccc(F)c(Cl)c4)c3n2)CC1)C(F)(F)F [2(8), 4-[(3-chloro-4-fluorophenyl)amino]-6-[1-trifluoroacetyl-4-piperidinylamino]pyrimido[5,4-d]pyrimidine] | > 20000 |
| 225 | – | Fc1ccc(Nc2ncnc3cnc(N4CCC(c5ccncc5)CC4)nc23)cc1Cl [2(9), 4-[(3-chloro-4-fluorophenyl)amino]-6-[4-(4-pyridyl)-1-piperidinyl]pyrimido[5,4-d]pyrimidine] | > 20000 |
| 275 | – | Fc1ccc(Nc2ncnc3cnc(N4CCN(c5ccccn5)CC4)nc23)cc1Cl [2(10), 4-[(3-chloro-4-fluorophenyl)amino]-6-[4-(2-pyridyl)-1-piperazinyl]pyrimido[5,4-d]pyrimidine] | > 20000 |
| 190 | – | NCc1cccc(CNc2ncc3ncnc(Nc4ccc(F)c(Cl)c4)c3n2)c1 [2(11), 4-[(3-chloro-4-fluorophenyl)amino]-6-[3-(aminomethyl)benzylamino]pyrimido[5,4-d]pyrimidine] | – |
| 98 | – | NCc1ccc(CNc2ncc3ncnc(Nc4ccc(F)c(Cl)c4)c3n2)cc1 [2(12), 4-[(3-chloro-4-fluorophenyl)amino]-6-[4-(aminomethyl)benzylamino]pyrimido[5,4-d]pyrimidine] | – |
| > 10000 | – | O[C@H]1CC[C@H](Nc2ncc3ncnc(Nc4ccc5c(c4)Cc4ccccc4-5)c3n2)CC1 [2(15), 4-[2-fluorenylamino]-6-(trans-4-hydroxycyclohexylamino)pyrimido[5,4-d]pyrimidine] | – |
| 21 | – | c1nc(Nc2ccc3[nH]ccc3c2)c2nc(N3CCOCC3)ncc2n1 [Example 1, 4-(5-Indolylamino)-6-morpholinopyrimido[5,4-d]pyrimidine] | 10000 |
| 3 | 100 | Fc1ccc(Nc2ncnc3cnc(NN4CCOCC4)nc23)cc1Cl [Example 2(6), 4-[(3-chloro-4-fluorophenyl)amino]-6-[(4-morpholinyl)amino]pyrimido[5,4-d]pyrimidine] | > 10000 |
| 50 | 400 | Fc1ccc(Nc2ncnc3cnc(NCc4ccncc4)nc23)cc1Cl [Example 2, 4-[(3-Chloro-4-fluorophenyl)amino]-6-(4-picolylamino)pyrimido[5,4-d]pyrimidine] | > 1000 |
